What was measured:
[1] = target: T1, Rat recombinant PDE10A (rPDE10A2) (Rattus norvegicus, UniProt Q9QYJ6); assay: In vitro assay PDE10A, rat clone (SPA, 3H-cAMP hydrolysis); assay type: biochemical
T1 construct: His tag (inferred from metal chelate purification); made in house; host or cells: Sf9 insect cells (baculovirus)
T1 sequence (Q9QYJ6 1-794): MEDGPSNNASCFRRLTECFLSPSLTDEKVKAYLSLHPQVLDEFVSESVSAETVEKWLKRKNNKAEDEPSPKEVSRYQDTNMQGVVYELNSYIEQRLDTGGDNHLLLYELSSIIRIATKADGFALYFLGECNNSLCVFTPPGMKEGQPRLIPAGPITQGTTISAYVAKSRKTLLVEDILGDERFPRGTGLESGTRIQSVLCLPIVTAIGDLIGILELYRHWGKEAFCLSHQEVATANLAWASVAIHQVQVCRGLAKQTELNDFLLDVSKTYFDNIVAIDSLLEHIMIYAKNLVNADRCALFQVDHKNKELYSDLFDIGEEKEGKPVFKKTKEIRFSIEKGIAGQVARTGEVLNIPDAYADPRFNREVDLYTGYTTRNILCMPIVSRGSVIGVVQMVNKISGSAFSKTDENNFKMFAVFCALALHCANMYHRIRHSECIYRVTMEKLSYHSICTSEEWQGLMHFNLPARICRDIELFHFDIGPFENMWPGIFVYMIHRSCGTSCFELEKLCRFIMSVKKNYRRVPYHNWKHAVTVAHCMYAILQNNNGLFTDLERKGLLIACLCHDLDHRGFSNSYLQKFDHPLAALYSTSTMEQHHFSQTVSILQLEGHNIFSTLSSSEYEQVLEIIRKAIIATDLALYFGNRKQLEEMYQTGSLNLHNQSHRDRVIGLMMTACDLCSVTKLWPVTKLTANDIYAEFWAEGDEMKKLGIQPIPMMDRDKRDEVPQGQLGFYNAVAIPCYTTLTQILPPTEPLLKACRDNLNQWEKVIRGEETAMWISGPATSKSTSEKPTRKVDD
Procedure: Rat recombinant PDE10A (rPDE10A2) was expressed in Sf9 cells using a recombinant rPDE10A baculovirus construct. Cells were harvested after 48 h of infection and the rPDE10A protein was purified by metal chelate chromatography on Ni-sepharose 6FF. Tested compounds were dissolved and diluted in 100% DMSO to a concentration 100 fold of the final concentration in the assay. Human recombinant PDE10A ([…]) was expressed in Sf9 cells using a recombinant hPDE10A baculovirus that was made and amplified in house. Cells were harvested after 72 h of infection and the hPDE10A protein was purified by metal chelate chromatography on Ni-sepharose. Compound dilutions (0.4 μl) were added in 384 well plates to 20 μl of incubation buffer (50 mM Tris pH 7.8, 8.3 mM MgCl2, 1.7 mM EGTA). 10 μl of rPDE10A or hPDE10A enzyme in incubation buffer was added and the reaction was started by addition of 10 μl substrate to a final concentration of 60 nM cAMP and 0.008 μCi ^3H-cAMP. The reaction was incubated for 60 minutes at room temperature. After incubation, the reaction was stopped with 20 μl of stop solution consisting of 17.8 mg/ml PDE SPA (scintillation proximity assay) beads. After sedimentation of the beads during 30 minutes the radioactivity was measured in a Perkin Elmer Topcount scintillation counter and results were expressed as cpm. For blanc values the enzyme was omitted from the reaction and replaced by incubation buffer. Control values were obtained by addition of a final concentration of 1% DMSO instead of compound. A best fit curve is fitted by a minimum sum of squares method to the plot of % of control value subtracted with blanc value versus compound concentration and the half maximal inhibitory concentration (IC50) value is derived from this curve.

PDE2A = target: T2, PDE2A (Rattus norvegicus, UniProt Q01062); assay: PDE2 occupancy by test compounds, ex-vivo autoradiography with [3H]B-17a; assay type: in vivo, Male Wistar rats; details: sc, 10 mg/kg, route SC (subcutaneous), percentage receptor occupancy, ex-vivo autoradiography, striatum
T2 construct: Twenty μm-thick striatal sections were cut; from tissue; host or cells: rat brain, striatal sections
T2 sequence (Q01062 1-928): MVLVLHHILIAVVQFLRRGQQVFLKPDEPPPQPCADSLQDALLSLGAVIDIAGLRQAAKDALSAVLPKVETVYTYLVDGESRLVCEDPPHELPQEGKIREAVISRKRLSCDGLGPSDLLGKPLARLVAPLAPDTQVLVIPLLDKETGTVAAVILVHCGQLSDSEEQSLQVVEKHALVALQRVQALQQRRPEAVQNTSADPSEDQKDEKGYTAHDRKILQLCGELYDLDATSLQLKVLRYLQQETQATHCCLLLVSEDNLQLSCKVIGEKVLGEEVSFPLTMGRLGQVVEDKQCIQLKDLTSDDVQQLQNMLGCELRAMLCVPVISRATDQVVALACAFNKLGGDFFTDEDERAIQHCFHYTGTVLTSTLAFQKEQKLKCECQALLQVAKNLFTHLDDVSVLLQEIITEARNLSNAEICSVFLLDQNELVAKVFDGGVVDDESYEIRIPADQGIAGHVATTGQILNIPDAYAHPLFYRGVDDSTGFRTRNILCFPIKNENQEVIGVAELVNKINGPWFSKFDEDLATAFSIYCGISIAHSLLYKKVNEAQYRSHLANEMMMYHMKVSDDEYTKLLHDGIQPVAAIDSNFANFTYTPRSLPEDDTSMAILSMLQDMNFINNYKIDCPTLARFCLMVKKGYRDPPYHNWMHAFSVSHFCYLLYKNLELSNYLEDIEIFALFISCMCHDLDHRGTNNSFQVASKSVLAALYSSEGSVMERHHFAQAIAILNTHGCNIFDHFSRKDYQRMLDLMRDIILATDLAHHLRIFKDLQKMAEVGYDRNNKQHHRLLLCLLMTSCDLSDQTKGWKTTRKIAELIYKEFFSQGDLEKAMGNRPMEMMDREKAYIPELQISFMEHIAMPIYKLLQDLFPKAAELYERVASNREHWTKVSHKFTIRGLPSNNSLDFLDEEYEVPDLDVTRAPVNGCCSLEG

Emax ([1]; rat clone (r)): 98%
IC50 ([1]; rat clone (r), read-out: rPDE10A2 pIC50 (converted)): 12 nM
rPDE10A2 pIC50 ([1]; rat clone, indicated as (r)): 7.92 (r)
receptor occupancy at 10 mg/kg (PDE2A): 88%
SMILES: C[C@@H]1CCN(C(=O)c2ccc3c(ccn3CCF)c2)C[C@H]1c1cc(C(F)F)nc2ncnn12 [Compound 89]
